Molecules are shown by their SMILES. Calls of active or inactive are those of the source. The rule behind the calls is not given here.

Assay [1] has as its target T1, Peroxisome proliferator-activated receptor gamma (Homo sapiens) (UniProt P37231).
T1 sequence (whole entry): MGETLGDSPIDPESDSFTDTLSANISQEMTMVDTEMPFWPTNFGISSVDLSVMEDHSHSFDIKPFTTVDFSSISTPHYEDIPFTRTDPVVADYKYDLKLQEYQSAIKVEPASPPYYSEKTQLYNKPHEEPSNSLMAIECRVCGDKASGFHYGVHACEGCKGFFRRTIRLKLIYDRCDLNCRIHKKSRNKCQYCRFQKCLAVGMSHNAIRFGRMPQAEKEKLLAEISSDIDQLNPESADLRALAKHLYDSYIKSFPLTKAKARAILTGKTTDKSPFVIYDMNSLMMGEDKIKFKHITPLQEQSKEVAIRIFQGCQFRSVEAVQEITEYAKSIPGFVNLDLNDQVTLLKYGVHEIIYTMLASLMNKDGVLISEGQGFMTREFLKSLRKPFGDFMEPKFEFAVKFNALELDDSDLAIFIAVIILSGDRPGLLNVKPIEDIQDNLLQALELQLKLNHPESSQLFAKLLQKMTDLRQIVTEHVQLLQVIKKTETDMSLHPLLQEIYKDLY
Nature of the assay: Covalent binding affinity to apo PPARgamma ligand binding domain (unknown origin) assessed as adduct formation measured within few minutes by ESI-MS analysis.

Assay [2] addresses T1, Peroxisome proliferator-activated receptor gamma (Homo sapiens). Nature of the assay: Covalent binding affinity to apo PPARgamma ligand binding domain (unknown origin) assessed as adduct formation incubated for 24 hrs by ESI-MS analysis.

As for `O=C(Nc1ccccc1)c1cc([N+](=O)[O-])ccc1Cl`, the result in assay [1] was Active.

In the case of `CCCOc1ccc(NC(=O)C#Cc2ccccc2)cc1CNC(=O)c1ccc(-c2ncccn2)cc1`, the outcome in assay [2] was Active.

As for `COc1ccc(NC(=O)C#Cc2ccccc2)cc1CNC(=O)c1ccc(N2CCCCC2)cc1`, in assay [2], the result was Active.

(Values after ChEMBL document CHEMBL5143632, “Arylalkynyl amide-type peroxisome proliferator-activated receptor γ (PPARγ)-selective antagonists covalently bind to the PPARγ ligand binding domain with a unique binding mode” (Bioorg Med Chem Lett, 2022).)
